Data published in patent publication US20050107356A1, “Combination of a CB1 receptor antagonist and of a product which activates dopaminergic neurotransmission in the brain, the pharmaceutical compositions comprising them and their use in the treatment of parkinson's disease” (Aventis Pharma S.A., priority 2001, published 2005).
Marks after values point to notes of the source that are not given here.

Legend:
Format in all cases: in vivo
Reserpine-treated rats [1] = test: Reserpine-induced akinesia in the rat, locomotor activity; CB1 antagonist i.p. co-administered with quinpirole (D2 dopaminergic agonist); conditions: CB1 antagonist 1.5 mg/kg i.p., locomotor activity recorded 1 hour
Method: (§1) The synergistic effect of the combination of one or more products which activate dopaminergic neurotransmission in the brain and of one or more CB1 antagonists in the treatment of Parkinson's disease was determined in a model of akinesia induced by reserpine in the rat according to the following protocol:
(§2) Male Sprague-Dawley rats were treated with reserpine administered subcutaneously at a dose of 3 mg/kg (1 ml/kg) in order to induce akinesia in the animal. 18 hours after this treatment, the locomotor activity of these animals was measured and recorded using an automatic system (Videotrack, France). The locomotion, expressed in centimeters, is estimated by a mean overall distance covered during this period (n=11-38 rats per group). The statistical analysis is carried out by a variance analysis and a post-hoc comparison (if appropriate) using a Mann-Whitney or Dunnett test. A significant effect is recorded for p<0.05.
(§3) The results for the ip administration of the CB1 antagonists (Table 1) are expressed as percentage of increase with respect to the activity of quinpirole and as percentage of decrease with respect to the activity of a very strong dose of levodopa.
The combination of a CB1 receptor antagonist and of a D2 dopaminergic agonist (quinpirole) is produced in the following way: […]

Reserpine-treated rats [2] = test: Reserpine-induced akinesia in the rat, locomotor activity; CB1 antagonist i.p. co-administered with a strong dose of levodopa + benserazide (dyskinesia model); conditions: CB1 antagonist 3 mg/kg i.p., levodopa + benserazide 50 mg/kg, recorded 2.5 hours
Method: as §1, §2, §3
The combination of a CB1 receptor antagonist and of a strong dose of levodopa (dyskinesia model) is produced in the following way: […]

Reserpine-treated rats [3] = test: Reserpine-induced akinesia in the rat, locomotor activity; CB1 antagonist po one hour before quinpirole (D2 dopaminergic agonist); conditions: recorded 1 hour
Method: as §1, §2
(§4) The studies by the oral route are carried out in a hydrophobic formulation solvent Labrafil/Labrasol (40/60%, w/w). These products are administered (in a volume of 1 ml/kg) one hour before the dopaminergic agonist. The recording of the locomotor activity begins 5 min after the intraperitoneal injection of the dopaminergic agonist and lasts 1 hour. The D1 dopaminergic agonist is 0.3 mg/kg C1-APB. The D2 dopaminergic agonist is 0.1 mg/kg quinpirole.

Reserpine-treated rats [4] = test: Reserpine-induced akinesia in the rat, locomotor activity; CB1 antagonist po one hour before C1-APB (SKF 82958, D1 dopaminergic agonist); conditions: recorded 1 hour
Method: as §1, §2, §4

In the case of CS(=O)(=O)C(=C1CN(C(c2ccc(Cl)cc2)c2ccc(Cl)cc2)C1)c1cc(F)cc(F)c1 [Example 1, 1-[bis(4-chlorophenyl)methyl]-3-[(3,5-difluorophenyl)(methylsulfonyl)methylene]azetidine], the “Combination with quinpirole (62.5 μg/kg ip): percentage of increase with respect to the activity of quinpirole” value (Reserpine-treated rats [1]) is reported as “+125%***”, the “Combination with levodopa (120 mg/kg ip): percentage of decrease with respect to the activity of a very strong dose of levodopa” value (Reserpine-treated rats [2]) is reported as −42%* and the “Combination with quinpirole (0.1 mg/kg ip): percentage of increase with respect to the activity of quinpirole” value (Reserpine-treated rats [3]; CB1 antagonist 1 mg/kg po) is reported as “+33% NS”. The “Combination with quinpirole (0.1 mg/kg ip): percentage of increase with respect to the activity of quinpirole” value (Reserpine-treated rats [3]; CB1 antagonist 3 mg/kg po) was “+58%**”, the “Combination with quinpirole (0.1 mg/kg ip): percentage of increase with respect to the activity of quinpirole” value (Reserpine-treated rats [3]; CB1 antagonist 10 mg/kg po) was “+23% NS” and the “Combination with C1-APB (0.3 mg/kg ip): percentage of decrease with respect to the activity of a strong dose of C1-APB” value (Reserpine-treated rats [4]; CB1 antagonist 1 mg/kg po) was −33% NS. The “Combination with C1-APB (0.3 mg/kg ip): percentage of decrease with respect to the activity of a strong dose of C1-APB” value (Reserpine-treated rats [4]; CB1 antagonist 3 mg/kg po) was −67%** and the “Combination with C1-APB (0.3 mg/kg ip): percentage of decrease with respect to the activity of a strong dose of C1-APB” value (Reserpine-treated rats [4]; CB1 antagonist 10 mg/kg po) was −62%**.
